According to patent US20020111274A1, “1-alkyl-3-[1-(substituted phenyl) benzotriazol-6-yl] uracils” (BASF Aktiengesellschaft, priority 2000, published 2002):

Key:
Set-up in all cases: scale not given here
[1] = test system: GLXMAW Soybean, Williams; experiment: Postemergence herbicidal evaluation, GLXMAW; format: in vivo, Glycine max, (L.) Merr. cv Williams; conditions: postemergence spray, rated about two-three weeks after treatment
Outline: (§1)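 Postemergence spray, 40 psi nozzle, on ~2-week seedlings. Carrier: acetone/water 80/20, 1.0% methylated seed oil; dose ~0.006–0.400 kg/ha. Scored visually at 2–3 weeks.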

[2] = test system: GLXMAW Soybean, Williams; experiment: Preemergence herbicidal evaluation, GLXMAW; format: in vivo, Glycine max, (L.) Merr. cv Williams; conditions: preemergence
Outline: (§2)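 Seeds mixed with potting soil in cups, then sprayed preemergence with aqueous acetone test solution at about 0.013 to 0.800 kg per hectare equivalent. Cups kept under standard greenhouse care; plants rated on a visual scale four to five weeks after treatment.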

[3] = test system: CASOB Sicklepod; experiment: Preemergence herbicidal evaluation, CASOB; format: in vivo, Cassia obtusifolia, L.; conditions: preemergence
Outline: as §2

[4] = test system: ABUTH Velvetleaf; experiment: Preemergence herbicidal evaluation, ABUTH; format: in vivo, Abutilon theophrasti, Medic.; conditions: preemergence
Outline: as §2

[5] = test system: IPOHE Morningglory, Ivyleaf; experiment: Preemergence herbicidal evaluation, IPOHE; format: in vivo, Ipomoea hederacea, (L.) Jacq.; conditions: preemergence
Outline: as §2

[6] = test system: TRZAWR Wheat, Winter, cv Riband; experiment: Preemergence herbicidal evaluation, TRZAWR; format: in vivo, Triticum aestivum; conditions: preemergence
Outline: as §2

[7] = test system: CHEAL Lambsquarters, Common; experiment: Preemergence herbicidal evaluation, CHEAL; format: in vivo, Chenopodium album, L.; conditions: preemergence
Outline: as §2

[8] = test system: AMBEL Ragweed, Common; experiment: Postemergence herbicidal evaluation, AMBEL; format: in vivo, Ambrosia artemisifolia, L.; conditions: postemergence spray, rated about two-three weeks after treatment
Outline: as §1

[9] = test system: ABUTH Velvetleaf; experiment: Postemergence herbicidal evaluation, ABUTH; format: in vivo, Abutilon theophrasti, Medic.; conditions: postemergence spray, rated about two-three weeks after treatment
Outline: as §1

[10] = test system: ECHOG Barnyardgrass; experiment: Postemergence herbicidal evaluation, ECHOG; format: in vivo, Echinochloa crus-galli, (L.) Beau; conditions: postemergence spray, rated about two-three weeks after treatment
Outline: as §1

[11] = test system: IPOHE Morningglory, Ivyleaf; experiment: Postemergence herbicidal evaluation, IPOHE; format: in vivo, Ipomoea hederacea, (L.) Jacq.; conditions: postemergence spray, rated about two-three weeks after treatment
Outline: as §1

[12] = test system: SETVI Foxtail, Green; experiment: Preemergence herbicidal evaluation, SETVI; format: in vivo, Setaria viridis, (L.) Beau; conditions: preemergence
Outline: as §2

[13] = test system: ORYSAT Rice, Tebonnet; experiment: Preemergence herbicidal evaluation, ORYSAT; format: in vivo, Oryza sativa, (L.); conditions: preemergence
Outline: as §2

[14] = test system: SETVI Foxtail, Green; experiment: Postemergence herbicidal evaluation, SETVI; format: in vivo, Setaria viridis, (L.) Beau; conditions: postemergence spray, rated about two-three weeks after treatment
Outline: as §1

[15] = test system: ECHOG Barnyardgrass; experiment: Preemergence herbicidal evaluation, ECHOG; format: in vivo, Echinochloa crus-galli, (L.) Beau; conditions: preemergence
Outline: as §2

[16] = test system: CASOB Sicklepod; experiment: Postemergence herbicidal evaluation, CASOB; format: in vivo, Cassia obtusifolia, L.; conditions: postemergence spray, rated about two-three weeks after treatment
Outline: as §1

[17] = test system: ZEAMX Corn, Field; experiment: Postemergence herbicidal evaluation, ZEAMX; format: in vivo, Zea mays, L. (Sammel-Bezeichnung); conditions: postemergence spray, rated about two-three weeks after treatment
Outline: as §1

[18] = test system: AMBEL Ragweed, Common; experiment: Preemergence herbicidal evaluation, AMBEL; format: in vivo, Ambrosia artemisifolia, L.; conditions: preemergence
Outline: as §2

[19] = test system: GALAP Galium; experiment: Preemergence herbicidal evaluation, GALAP; format: in vivo, Galium aparine; conditions: preemergence
Outline: as §2

[20] = test system: ORYSAT Rice, Tebonnet; experiment: Postemergence herbicidal evaluation, ORYSAT; format: in vivo, Oryza sativa, (L.); conditions: postemergence spray, rated about two-three weeks after treatment
Outline: as §1

[21] = test system: ZEAMX Corn, Field; experiment: Preemergence herbicidal evaluation, ZEAMX; format: in vivo, Zea mays, L. (Sammel-Bezeichnung); conditions: preemergence
Outline: as §2

[22] = test system: GALAP Galium; experiment: Postemergence herbicidal evaluation, GALAP; format: in vivo, Galium aparine; conditions: postemergence spray, rated about two-three weeks after treatment
Outline: as §1

[23] = test system: TRZAWR Wheat, Winter, cv Riband; experiment: Postemergence herbicidal evaluation, TRZAWR; format: in vivo, Triticum aestivum; conditions: postemergence spray, rated about two-three weeks after treatment
Outline: as §1

[24] = test system: CHEAL Lambsquarters, Common; experiment: Postemergence herbicidal evaluation, CHEAL; format: in vivo, Chenopodium album, L.; conditions: postemergence spray, rated about two-three weeks after treatment
Outline: as §1

C=CCOc1ccc(-n2nnc3cc(F)c(-n4c(=O)cc(C(F)(F)F)n(C)c4=O)cc32)c(C)c1 [Example 43] was tested, and the “Postemergence herbicidal rating GLXMAW” value ([1]; 0.008 kg/ha) was 5.0, the “Postemergence herbicidal rating GLXMAW” value ([1]; 0.016 kg/ha) was 5.0 and the “Postemergence herbicidal rating GLXMAW” value ([1]; 0.032 kg/ha) was 5.5. The “Postemergence herbicidal rating GLXMAW” value ([1]; 0.062 kg/ha) was 5.5, the GLXMAW herbicidal rating ([2]; rate 0.016 kg/ha) was 1.0 and the GLXMAW herbicidal rating ([2]; rate 0.032 kg/ha) was 1.0. The GLXMAW herbicidal rating ([2]; rate 0.062 kg/ha) was 0.0, the GLXMAW herbicidal rating ([2]; rate 0.125 kg/ha) was 1.0 and the CASOB herbicidal rating ([3]; rate 0.016 kg/ha) was 0.0. For the same molecule, the CASOB herbicidal rating ([3]; rate 0.032 kg/ha) was 0.0, the CASOB herbicidal rating ([3]; rate 0.062 kg/ha) was 0.0 and the CASOB herbicidal rating ([3]; rate 0.125 kg/ha) was 0.0. For the same molecule, the ABUTH herbicidal rating ([4]; rate 0.016 kg/ha) was 0.0, the ABUTH herbicidal rating ([4]; rate 0.032 kg/ha) was 1.0 and the ABUTH herbicidal rating ([4]; rate 0.062 kg/ha) was 9.0. It also gave an ABUTH herbicidal rating ([4]; rate 0.125 kg/ha) of 8.0, an IPOHE herbicidal rating ([5]; rate 0.016 kg/ha) of 0.0 and an IPOHE herbicidal rating ([5]; rate 0.032 kg/ha) of 0.0. The IPOHE herbicidal rating ([5]; rate 0.062 kg/ha) was 0.0, the IPOHE herbicidal rating ([5]; rate 0.125 kg/ha) was 0.0 and the TRZAWR herbicidal rating ([6]; rate 0.016 kg/ha) was 0.0. It also gave a TRZAWR herbicidal rating ([6]; rate 0.032 kg/ha) of 0.0, a TRZAWR herbicidal rating ([6]; rate 0.062 kg/ha) of 0.0 and a TRZAWR herbicidal rating ([6]; rate 0.125 kg/ha) of 1.0. It also gave a CHEAL herbicidal rating ([7]; rate 0.016 kg/ha) of 9.0, a CHEAL herbicidal rating ([7]; rate 0.032 kg/ha) of 9.0 and a CHEAL herbicidal rating ([7]; rate 0.062 kg/ha) of 9.0. The CHEAL herbicidal rating ([7]; rate 0.125 kg/ha) was 9.0, the “Postemergence herbicidal rating AMBEL” value ([8]; 0.008 kg/ha) was 1.0 and the “Postemergence herbicidal rating AMBEL” value ([8]; 0.016 kg/ha) was 7.0. The “Postemergence herbicidal rating AMBEL” value ([8]; 0.032 kg/ha) was 7.0, the “Postemergence herbicidal rating AMBEL” value ([8]; 0.062 kg/ha) was 9.0 and the “Postemergence herbicidal rating ABUTH” value ([9]; 0.008 kg/ha) was 9.0. For the same molecule, the “Postemergence herbicidal rating ABUTH” value ([9]; 0.016 kg/ha) was 9.0, the “Postemergence herbicidal rating ABUTH” value ([9]; 0.032 kg/ha) was 9.0 and the “Postemergence herbicidal rating ABUTH” value ([9]; 0.062 kg/ha) was 9.0. The “Postemergence herbicidal rating ECHCG” value ([10]; 0.008 kg/ha) was 1.0, the “Postemergence herbicidal rating ECHCG” value ([10]; 0.016 kg/ha) was 1.0 and the “Postemergence herbicidal rating ECHCG” value ([10]; 0.032 kg/ha) was 1.0. The “Postemergence herbicidal rating ECHCG” value ([10]; 0.062 kg/ha) was 2.0, the “Postemergence herbicidal rating IPOHE” value ([11]; 0.008 kg/ha) was 9.0 and the “Postemergence herbicidal rating IPOHE” value ([11]; 0.016 kg/ha) was 9.0. The “Postemergence herbicidal rating IPOHE” value ([11]; 0.032 kg/ha) was 9.0, the “Postemergence herbicidal rating IPOHE” value ([11]; 0.062 kg/ha) was 9.0 and the SETVI herbicidal rating ([12]; rate 0.016 kg/ha) was 0.0. For the same molecule, the SETVI herbicidal rating ([12]; rate 0.032 kg/ha) was 1.0, the SETVI herbicidal rating ([12]; rate 0.062 kg/ha) was 4.0 and the SETVI herbicidal rating ([12]; rate 0.125 kg/ha) was 7.0. It also gave an ORYSAT herbicidal rating ([13]; rate 0.016 kg/ha) of 0.0, an ORYSAT herbicidal rating ([13]; rate 0.032 kg/ha) of 0.0 and an ORYSAT herbicidal rating ([13]; rate 0.062 kg/ha) of 0.0. The ORYSAT herbicidal rating ([13]; rate 0.125 kg/ha) was 0.0, the “Postemergence herbicidal rating SETVI” value ([14]; 0.008 kg/ha) was 0.0 and the “Postemergence herbicidal rating SETVI” value ([14]; 0.016 kg/ha) was 1.0. For the same molecule, the “Postemergence herbicidal rating SETVI” value ([14]; 0.032 kg/ha) was 9.0, the “Postemergence herbicidal rating SETVI” value ([14]; 0.062 kg/ha) was 9.0 and the ECHCG herbicidal rating ([15]; rate 0.016 kg/ha) was 0.0. For the same molecule, the ECHCG herbicidal rating ([15]; rate 0.032 kg/ha) was 0.0, the ECHCG herbicidal rating ([15]; rate 0.062 kg/ha) was 0.0 and the ECHCG herbicidal rating ([15]; rate 0.125 kg/ha) was 1.0. For the same molecule, the “Postemergence herbicidal rating CASOB” value ([16]; 0.008 kg/ha) was 0.0, the “Postemergence herbicidal rating CASOB” value ([16]; 0.016 kg/ha) was 0.0 and the “Postemergence herbicidal rating CASOB” value ([16]; 0.032 kg/ha) was 0.0. For the same molecule, the “Postemergence herbicidal rating CASOB” value ([16]; 0.062 kg/ha) was 3.0, the “Postemergence herbicidal rating ZEAMX” value ([17]; 0.008 kg/ha) was 4.0 and the “Postemergence herbicidal rating ZEAMX” value ([17]; 0.016 kg/ha) was 5.0. For the same molecule, the “Postemergence herbicidal rating ZEAMX” value ([17]; 0.032 kg/ha) was 5.0, the “Postemergence herbicidal rating ZEAMX” value ([17]; 0.062 kg/ha) was 5.0 and the AMBEL herbicidal rating ([18]; rate 0.016 kg/ha) was 0.0. For the same molecule, the AMBEL herbicidal rating ([18]; rate 0.032 kg/ha) was 0.0, the AMBEL herbicidal rating ([18]; rate 0.062 kg/ha) was 0.0 and the AMBEL herbicidal rating ([18]; rate 0.125 kg/ha) was 0.0. For the same molecule, the GALAP herbicidal rating ([19]; rate 0.016 kg/ha) was 0.0, the GALAP herbicidal rating ([19]; rate 0.032 kg/ha) was 0.0 and the GALAP herbicidal rating ([19]; rate 0.062 kg/ha) was 0.0. For the same molecule, the GALAP herbicidal rating ([19]; rate 0.125 kg/ha) was 0.0, the “Postemergence herbicidal rating ORYSAT” value ([20]; 0.008 kg/ha) was 2.5 and the “Postemergence herbicidal rating ORYSAT” value ([20]; 0.016 kg/ha) was 2.0. For the same molecule, the “Postemergence herbicidal rating ORYSAT” value ([20]; 0.032 kg/ha) was 2.0, the “Postemergence herbicidal rating ORYSAT” value ([20]; 0.062 kg/ha) was 3.0 and the ZEAMX herbicidal rating ([21]; rate 0.016 kg/ha) was 0.0. It also gave a ZEAMX herbicidal rating ([21]; rate 0.032 kg/ha) of 0.0, a ZEAMX herbicidal rating ([21]; rate 0.062 kg/ha) of 0.0 and a ZEAMX herbicidal rating ([21]; rate 0.125 kg/ha) of 2.0. The “Postemergence herbicidal rating GALAP” value ([22]; 0.008 kg/ha) was 0.0, the “Postemergence herbicidal rating GALAP” value ([22]; 0.016 kg/ha) was 0.0 and the “Postemergence herbicidal rating GALAP” value ([22]; 0.032 kg/ha) was 1.0. For the same molecule, the “Postemergence herbicidal rating GALAP” value ([22]; 0.062 kg/ha) was 1.0, the “Postemergence herbicidal rating TRZAWR” value ([23]; 0.008 kg/ha) was 3.0 and the “Postemergence herbicidal rating TRZAWR” value ([23]; 0.016 kg/ha) was 3.0. For the same molecule, the “Postemergence herbicidal rating TRZAWR” value ([23]; 0.032 kg/ha) was 3.0, the “Postemergence herbicidal rating TRZAWR” value ([23]; 0.062 kg/ha) was 3.0 and the “Postemergence herbicidal rating CHEAL” value ([24]; 0.008 kg/ha) was 0.0. For the same molecule, the “Postemergence herbicidal rating CHEAL” value ([24]; 0.016 kg/ha) was 3.0, the “Postemergence herbicidal rating CHEAL” value ([24]; 0.032 kg/ha) was 3.0 and the “Postemergence herbicidal rating CHEAL” value ([24]; 0.062 kg/ha) was 4.0.
